Source: patent publication US20120283332A1 (OHIO UNIVERSITY, priority 2009, published 2012)

How the values were obtained:
Type 2 diabetes = conditions: human, in vivo
Description: They had recently stopped all diabetic medications due to side effects. They wished to stay off insulin due to the risk of gaining weight.
Labs: Hgb A1C 11.2%, Total Cholesterol: 159, Triglycerides: 284, HDL: 32, LDL: 70
The patient was not on any diabetic medications due to intolerable gastrointestinal side effects. […] It was decided that an alternative drug delivery mechanism would be appropriate. […] The patient was educated on the usage of the gel, how to apply the gel and potential side effects. The patient was to contact the physician if any adverse effects occurred. […] The patient was to follow-up in one month.
The patient stated that there had been no lifestyle changes.
Lipids were collected with results of total cholesterol: 119, triglycerides: 209, HDL: 29, LDL: 48.
They were interested in trying a medication that will cover their through the evening to get their BS to 200 mg/dL in the morning. They were concerned with anything that will cause them to gain weight.

[1] = cited from earlier work
[2] = oral; cited from earlier work
DM2 = conditions: oral metformin

CN(C)C(=N)N=C(N)N [metformin]
tolerability of previously tried diabetic medications (Type 2 diabetes): unable to tolerate
patients experiencing a gastrointestinal side effect ([1]; oral metformin, anorexia, nausea, vomiting, abdominal discomfort, diarrhea): Up to 20%
patients discontinuing therapy due to side effects ([1]; oral metformin): up to 5%
patients developing vitamin B12 deficiency ([1]; patients taking metformin): 77%
absorption time [2]: 6 h
BS readings (DM2; before it was stopped): improved
side effects leading to stopping (DM2; stopped 3 months prior to visit): severe gastrointestinal side effects

CCc1ccc(CCOc2ccc(CC3SC(=O)NC3=O)cc2)nc1 (stereo not drawn) [pioglitazone]
tolerability of previously tried diabetic medications (Type 2 diabetes): unable to tolerate

N[C@@H](CC(=O)N1CCn2c(nnc2C(F)(F)F)C1)Cc1cc(F)c(F)cc1F [sitagliptin]
tolerability of previously tried diabetic medications (Type 2 diabetes): unable to tolerate
